Results from US11560370B1, “5-membered heteroaryl carboxamide compounds for treatment of HBV” (Assembly Biosciences, Inc., priority 2018, dated 2023).
Read-outs that look alike come from different tables or passages of the source.

Tested on: HBV
Assay: Viral production from HepAD38 cells, viral load by qPCR of HBV core sequence
Format: cell-based
Details: 5 days, supernatant HBV DNA by qPCR, read-out: Viral Load EC50 Activity range
Protocol: Assay Measuring Activity of Test Compounds on Viral Production from HepAD38 Cells
HepAD38 cells grown in a T-150 flask (Corning, cat #: 430825) with Growth Medium (DMEM/F12 (1:1) (Hyclone, cat #: SH30023.02), 1× Pen/Strep (Invitrogen, cat #: 15140-122), 10% FBS (Tissue Culture Biologics, cat #: 101), 250 μg/mL G418 (Alfa Aesar, cat #: J62671), 1 μg/mL Tetracycline (Teknova, cat #: T3320)) were detached with 0.25% trypsin-EDTA to (Invitrogen, cat #: 25200-056). Tetracycline-free treatment medium (15 mL DMEM/F12 (1:1) 1× Pen/step, with 2% FBS, Tet-system approved (Clontech, cat #: 631106) were then added to mix, transferred into a 50 ml conical tube (Falcon, cat #: 21008-918,) and spun at 1300 rpm for 5 min. Pelleted cells were then re-suspended/washed with 50 mL of 1×DPBS (Invitrogen, cat #: 14190-136) 2 times and 50 mL treatment medium twice. HepAD38 cells were then re-suspended with 10 mL of treatment medium, syringed and counted. Wells of 96-well clear bottom TC plate (Corning, cat #: 3904,) were seeded at 50,000 cells/well in 180 μL of treatment medium, and 20 μL of either 10% DMSO (Sigma, cat #: D4540) as controls or a 10× solution of test compounds in 10% DMSO in treatment media was added for a final compound concentration starting at 10 μM, and plates were incubated in 5% CO2 incubator at 37° C. for 5 days.
Subsequently viral load production was assayed by quantitative PCR (qPCR) of the HBV core sequence. PCR reaction mixture containing forward primers HBV-f 5′-CTGTGCCTTGGGTGGCTTT-3′ (IDT DNA), Reverse primers HBV-r 5′-[…]-3′ (IDT DNA), Fluorescent TaqMan™ Probes HBV-probe 5′-FAM/AGCTCCAAA/ZEN/[…]/3IABkFQ-3′ (IDT DNA), 10 μL/well of PerfeCTa® qPCR ToughMix® (Quanta Biosciences, Cat #: 95114-05K), and 6 μL/well of DEPC water (Alfa Aesar, cat #: J62087) was prepared. […] of supernatant was added to 16 μL of the reaction mixture in a qPCR plate (Applied Biosytems, Cat #: 4309849), sealed with a film (Applied Biosystems, Cat #: 4311971), centrifuged for a few seconds, and subsequently run on an Applied Biosystems VIIA7. The PCR mixture was incubated at 45° C. for 5 min, then 95° C. for 10 min, followed by 40 cycles of 10 seconds at 95° C. and 20 seconds at 60° C. Viral load was quantified against known HBV DNA standards by using ViiA™ 7 Software. Viral load in the supernatant from wells with treated cells were compared against viral load in supernatant from DMSO control wells (>3 per plate). Cell viability assay was performed with CellTiter-Glo Luminescent Cell Viability Assay (Promega, cat #: G7573) with modification. Mixed appropriate amount of CellTiter-Glo (CTG) 1×DPBS in a 1:1 ratio, added 100 uL of the mixture to each well followed completely removal of all supernatant in each well without touching cell surface. Incubated the plate at room temperature for 10 min on an orbital shaker, and then read the plate with a plate reader (TECAN M1000 or Envision). EC50 or CC50 values were calculated through curve-fitting of the four-parameter nonlinear-logistic-regression model (GraphPad Prism or Dotmatics). CC50 values were all >10 μM.

[1] = Hepatitis B virus, HePAD38, 120 h

Compound | EC50 [1] [µM] | EC50 [µM]
COc1ccccc1C1CCC(c2nn(C)c(N)c2C(=O)Nc2ccc(F)c(Cl)c2)C1 (single isomer, unassigned) [AIA-275A, 5-Amino-N-(3-chloro-4-fluorophenyl)-3-(3-(2-methoxyphenyl)cyclopentyl)-1-methyl-1H-pyrazole-4-carboxamide] | 0.1 to 0.5 | 
COc1ccccc1C1CCC(c2nn(C)c(N)c2C(=O)Nc2ccc(F)c(Cl)c2)C1 (single isomer, unassigned) [AIA-275B, 5-Amino-N-(3-chloro-4-fluorophenyl)-3-(3-(2-methoxyphenyl)cyclopentyl)-1-methyl-1H-pyrazole-4-carboxamide] |  | 0.1 to 0.5
COc1ccccc1C1CCC(c2nn(C)c(N)c2C(=O)Nc2ccc(F)c(Cl)c2)C1 (single isomer, unassigned) [AIA-275D, 5-Amino-N-(3-chloro-4-fluorophenyl)-3-(3-(2-methoxyphenyl)cyclopentyl)-1-methyl-1H-pyrazole-4-carboxamide] |  | < 0.1
COc1cccc(C2CCC(c3nn(C)c(N)c3C(=O)Nc3ccc(F)c(Cl)c3)C2)c1 (single isomer, unassigned) [AIA-276D, 5-Amino-N-(3-chloro-4-fluorophenyl)-3-(3-(3-methoxyphenyl)cyclopentyl)-1-methyl-1H-pyrazole-4-carboxamide] | < 0.1 | 
Cn1nc(C2CC3CC(O)(CSCCO)CC3C2)c(C(=O)Nc2ccc(F)c(Cl)c2)c1N (single isomer, unassigned) [AIA-283-1, 5-Amino-N-(3-chloro-4-fluorophenyl)-3-(5-hydroxy-5-(((2-hydroxyethyl)thio)methyl)octahydropentalen-2-yl)-1-methyl-1H-pyrazole-4-carboxamide] | < 0.1 | 
Cn1nc(C2CC3CC(O)(CSCCN4CCOCC4)CC3C2)c(C(=O)Nc2ccc(F)c(Cl)c2)c1N (single isomer, unassigned) [AIA-284-1, 5-Amino-N-(3-chloro-4-fluorophenyl)-3-(5-hydroxy-5-(((2-morpholinoethyl)thio)methyl)octahydropentalen-2-yl)-1-methyl-1H-pyrazole-4-carboxamide] | < 0.1 | 
CC(C)OCC1(O)CC2CC(c3nn(C)c(N)c3C(=O)Nc3ccc(F)c(Cl)c3)CC2C1 (single isomer, unassigned) [AIA-339-1, 5-Amino-N-(3-chloro-4-fluorophenyl)-3-(5-hydroxy-5-(isopropoxymethyl)octahydropentalen-2-yl)-1-methyl-1H-pyrazole-4-carboxamide] |  | 0.5 to 10
CC(C)OCC1(O)CC2CC(c3nn(C)c(N)c3C(=O)Nc3ccc(F)c(Cl)c3)CC2C1 (single isomer, unassigned) [AIA-339-2, 5-Amino-N-(3-chloro-4-fluorophenyl)-3-(5-hydroxy-5-(isopropoxymethyl)octahydropentalen-2-yl)-1-methyl-1H-pyrazole-4-carboxamide] |  | 0.1 to 0.5
Cn1nc(C2CC3CC(O)(CS(=O)(=O)CCCN4CCCCC4)CC3C2)c(C(=O)Nc2ccc(F)c(Cl)c2)c1N (single isomer, unassigned) [AIA-349-b, 5-Amino-N-(3-chloro-4-fluorophenyl)-3-(5-hydroxy-5-(((3-(piperidin-1-yl)propyl)sulfonyl)methyl)octahydropentalen-2-yl)-1-methyl-1H-pyrazole-4-carboxamide] | 0.1 to 0.5 | 
Cn1nc(C2CC3CC(O)(CS(=O)(=O)CCCN4CCNCC4=O)CC3C2)c(C(=O)Nc2ccc(F)c(Cl)c2)c1N (single isomer, unassigned) [AIA-351-a, 5-Amino-N-(3-chloro-4-fluorophenyl)-3-(5-hydroxy-5-(((3-(2-oxopiperazin-1-yl)propyl)sulfonyl)methyl)octahydropentalen-2-yl)-1-methyl-1H-pyrazole-4-carboxamide] | 0.5 to 10 | 
COc1cc(-c2ncc[nH]2)ccc1C1CCC(c2nn(C)c(N)c2C(=O)Nc2ccc(F)c(Cl)c2)C1 (single isomer, unassigned) [AIA-352-1, 3-(3-(4-(1H-Imidazol-2-yl)-2-methoxyphenyl)cyclopentyl)-5-amino-N-(3-chloro-4-fluorophenyl)-1-methyl-1H-pyrazole-4-carboxamide] |  | 0.5 to 10
COc1cc(-c2ncc[nH]2)ccc1C1CCC(c2nn(C)c(N)c2C(=O)Nc2ccc(F)c(Cl)c2)C1 (single isomer, unassigned) [AIA-352-2, 3-(3-(4-(1H-Imidazol-2-yl)-2-methoxyphenyl)cyclopentyl)-5-amino-N-(3-chloro-4-fluorophenyl)-1-methyl-1H-pyrazole-4-carboxamide] |  | < 0.1
Cn1nc(C2CC3CC(O)(CN4CCCCC4)CC3C2)c(C(=O)Nc2ccc(F)c(Cl)c2)c1N (single isomer, unassigned) [AIA-363-1, 5-Amino-N-(3-chloro-4-fluorophenyl)-3-(5-hydroxy-5-(piperidin-1-ylmethyl)octahydropentalen-2-yl)-1-methyl-1H-pyrazole-4-carboxamide] | 0.1 to 0.5 | 
Cn1nc(C2CC3CC(O)(CN4CCCCC4)CC3C2)c(C(=O)Nc2ccc(F)c(Cl)c2)c1N (single isomer, unassigned) [AIA-363-2, 5-Amino-N-(3-chloro-4-fluorophenyl)-3-(5-hydroxy-5-(piperidin-1-ylmethyl)octahydropentalen-2-yl)-1-methyl-1H-pyrazole-4-carboxamide] |  | 0.1 to 0.5
Cn1nc(C2CC3CC(O)(CN4CCOCC4)CC3C2)c(C(=O)Nc2ccc(F)c(Cl)c2)c1N (single isomer, unassigned) [AIA-364-2, 5-Amino-N-(3-chloro-4-fluorophenyl)-3-(5-hydroxy-5-(morpholinomethyl)octahydropentalen-2-yl)-1-methyl-1H-pyrazole-4-carboxamide] | 0.1 to 0.5 | 
COc1cc(-c2cn(C)cn2)ccc1C1CCC(c2nn(C)c(N)c2C(=O)Nc2ccc(F)c(Cl)c2)C1 (single isomer, unassigned) [AIA-365-2, 5-Amino-N-(3-chloro-4-fluorophenyl)-3-(3-(2-methoxy-4-(1-methyl-1H-imidazol-4-yl)phenyl)cyclopentyl)-1-methyl-1H-pyrazole-4-carboxamide] | < 0.1 | 
COc1cc(-c2c[nH]cn2)ccc1C1CCC(c2nn(C)c(N)c2C(=O)Nc2ccc(F)c(Cl)c2)C1 (single isomer, unassigned) [AIA-366-2, 3-(3-(4-(1H-Imidazol-4-yl)-2-methoxyphenyl)cyclopentyl)-5-amino-N-(3-chloro-4-fluorophenyl)-1-methyl-1H-pyrazole-4-carboxamide] | < 0.1 | 
COc1cc(-c2nccn2C)ccc1C1CCC(c2nn(C)c(N)c2C(=O)Nc2ccc(F)c(Cl)c2)C1 (single isomer, unassigned) [AIA-367-1, 5-Amino-N-(3-chloro-4-fluorophenyl)-3-(3-(2-methoxy-4-(1-methyl-1H-imidazol-2-yl)phenyl)cyclopentyl)-1-methyl-1H-pyrazole-4-carboxamide] | 0.1 to 0.5 | 
COc1cc(-c2nccn2C)ccc1C1CCC(c2nn(C)c(N)c2C(=O)Nc2ccc(F)c(Cl)c2)C1 (single isomer, unassigned) [AIA-367-2, 5-Amino-N-(3-chloro-4-fluorophenyl)-3-(3-(2-methoxy-4-(1-methyl-1H-imidazol-2-yl)phenyl)cyclopentyl)-1-methyl-1H-pyrazole-4-carboxamide] |  | < 0.1
COc1ccc([C@H]2CC[C@@H](c3nn(C)c(N)c3C(=O)Nc3ccc(F)c(Cl)c3)C2)cc1 [AIA-003-A, 5-Amino-N-(3-chloro-4-fluorophenyl)-3-((1R,3S)-3-(4-methoxyphenyl)cyclopentyl)-1-methyl-1H-pyrazole-4-carboxamide] | < 0.1 | 
